ChEMBL document CHEMBL1201862, “PubChem BioAssay data set” (2004)
Active and inactive are the calls of the source.

Key:
[1] = biological target: FAD-linked sulfhydryl oxidase ALR (Homo sapiens, UniProt P55789); assay: ALR-catalysed DTT oxidation blockers – biochemical, H2O2 detection, luminescence, cherry-pick, dose response (AID 493248)
[2] = biological target: T1, Polyadenylate-binding protein 1 (Homo sapiens, UniProt P11940); assay: MLLE domain peptide-binding blockers, IC50 – biochemical, fluorescence polarization, FITC-PAM2 peptide, dose response (AID 602259); type: functional; settings: read-out: IC50_Mean
[3] = biological target: T1, Polyadenylate-binding protein 1; assay: MLLE binding blockers, Cy5 peptide tracer – biochemical, fluorescence polarization, Cy5-PAM2 peptide, secondary, miRNA deadenylation inhibitor project, dose response (AID 602260); type: functional; settings: read-out: IC50_Mean
[4] = biological target: T2, Carboxy-terminal domain RNA polymerase II polypeptide A small phosphatase 1 (Homo sapiens, UniProt Q9GZU7); assay: CTDSP1 inhibitors, concentration-response, biochemical, absorbance readout, ultra-high-throughput screen actives (AID 540297); type: functional
T2 sequence (Q9GZU7 whole entry): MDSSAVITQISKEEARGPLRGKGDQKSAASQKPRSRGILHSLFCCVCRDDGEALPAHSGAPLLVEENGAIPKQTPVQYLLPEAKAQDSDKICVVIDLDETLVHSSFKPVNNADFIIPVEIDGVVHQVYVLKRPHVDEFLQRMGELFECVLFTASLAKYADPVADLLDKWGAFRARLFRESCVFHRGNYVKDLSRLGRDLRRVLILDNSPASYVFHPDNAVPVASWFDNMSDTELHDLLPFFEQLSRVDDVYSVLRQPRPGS

[5] = biological target: T3, RNA-binding protein pos-1 (Caenorhabditis elegans, UniProt G5EF15); assay: disruptors of C. elegans POS-1 RNA interaction – biochemical, fluorescence polarization, dose response (AID 1964);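 note: purified POS-1 fused to maltose binding protein made in E. coli; potency of compounds blocking POS-1 binding to fluorescent RNA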
T3 sequence (G5EF15 whole entry): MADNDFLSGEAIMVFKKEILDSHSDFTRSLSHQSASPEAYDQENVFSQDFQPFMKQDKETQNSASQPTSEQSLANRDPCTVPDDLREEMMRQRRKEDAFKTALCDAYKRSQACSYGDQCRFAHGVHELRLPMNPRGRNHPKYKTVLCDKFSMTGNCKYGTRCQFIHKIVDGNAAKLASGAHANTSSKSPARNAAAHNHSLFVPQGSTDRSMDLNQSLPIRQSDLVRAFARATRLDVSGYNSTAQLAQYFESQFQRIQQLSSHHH

[6] = biological target: T4, Zinc finger protein mex-5 (Caenorhabditis elegans, UniProt Q9XUB2); assay: potency of MEX-5 RNA-binding blockers – biochemical, C. elegans, fluorescence polarization, dose response (AID 1960)
T4 sequence (Q9XUB2 whole entry): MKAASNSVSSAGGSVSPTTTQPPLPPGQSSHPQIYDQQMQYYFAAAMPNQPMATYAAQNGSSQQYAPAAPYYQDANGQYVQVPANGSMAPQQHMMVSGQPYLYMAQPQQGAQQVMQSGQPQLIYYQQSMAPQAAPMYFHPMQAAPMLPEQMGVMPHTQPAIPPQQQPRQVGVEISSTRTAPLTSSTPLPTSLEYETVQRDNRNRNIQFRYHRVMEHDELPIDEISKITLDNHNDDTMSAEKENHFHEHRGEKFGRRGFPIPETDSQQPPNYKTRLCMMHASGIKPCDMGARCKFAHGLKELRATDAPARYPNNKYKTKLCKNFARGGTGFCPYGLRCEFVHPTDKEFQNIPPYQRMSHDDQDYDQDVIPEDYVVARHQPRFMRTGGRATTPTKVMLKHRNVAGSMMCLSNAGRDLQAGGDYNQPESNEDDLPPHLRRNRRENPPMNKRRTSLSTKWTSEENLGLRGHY

Nonstructural protein 1 = Nonstructural protein 1 (Influenza A virus, UniProt Q194T2); type: functional, Influenza A virus (A/California/07/2009(H1N1))
[7] = luciferase reporter signal suppression in cells – H4 neuroglioma cells, luminescence, dose response (AID 1990); type: functional, cell-based
[8] = Luminescence Cell-Based Dose Response HTS to Identify Inhibitors of 5'UTR Stem-Loop Driven Prion Protein mRNA Translation in H4 Neuroglioblastoma Cells. [Related pubchem assays: 1827 (Project Summary), 1813 (Primary HTS)]; type: functional
[9] = alpha-synuclein stem-loop luciferase translation blockers – H4 neuroglioma cells, luminescence, confirmation (AID 1988); type: functional, cell-based
INS1 = assay: INS-1E survival protection against cytokine death – cell-based, luminescence, retest, dose response (AID 449756); type: functional; settings: Rattus norvegicus;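 note: cell death triggered by IL-1 beta plus TNF-alpha plus IFN-gamma mixture; protective hits raise ATP signal compared with cytokine alone wells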
cells = type: functional
[10] = biological target: T5, Rac GTPase-activating protein 1 (Homo sapiens, UniProt Q9H0H5); assay: blockers of MgcRacGAP-driven Rac1 GTP hydrolysis – biochemical, ADP Hunter fluorescence, primary and confirmatory, confirmation (AID 624330); type: functional
T5 sequence (Q9H0H5 whole entry): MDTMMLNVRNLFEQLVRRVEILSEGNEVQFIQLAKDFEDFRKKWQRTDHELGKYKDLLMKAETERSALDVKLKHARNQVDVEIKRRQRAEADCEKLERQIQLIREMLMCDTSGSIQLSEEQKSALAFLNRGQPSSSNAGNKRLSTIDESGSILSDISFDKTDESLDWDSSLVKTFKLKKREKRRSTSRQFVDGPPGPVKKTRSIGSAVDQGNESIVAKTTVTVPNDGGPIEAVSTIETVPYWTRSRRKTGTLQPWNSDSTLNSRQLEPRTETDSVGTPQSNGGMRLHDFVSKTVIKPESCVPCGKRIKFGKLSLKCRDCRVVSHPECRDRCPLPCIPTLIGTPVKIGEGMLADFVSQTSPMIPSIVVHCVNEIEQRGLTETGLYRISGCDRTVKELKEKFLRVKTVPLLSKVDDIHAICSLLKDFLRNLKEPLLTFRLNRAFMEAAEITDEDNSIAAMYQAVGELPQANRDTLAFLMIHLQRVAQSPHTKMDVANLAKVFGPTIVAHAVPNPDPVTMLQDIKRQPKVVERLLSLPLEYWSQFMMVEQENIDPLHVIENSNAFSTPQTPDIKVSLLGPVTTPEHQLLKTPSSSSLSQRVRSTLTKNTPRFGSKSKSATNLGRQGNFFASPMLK

Cytochrome P450 2D6 = Cytochrome P450 2D6 (Homo sapiens, UniProt P10635);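 note: CYP2D6 member of a cytochrome P450 panel assay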
Cytochrome P450 2C9 = Cytochrome P450 2C9 (Homo sapiens, UniProt P11712)
Cytochrome P450 3A4 = Cytochrome P450 3A4 (Homo sapiens, UniProt P08684);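 note: CYP3A4 tested as one member of a cytochrome P450 panel screen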
[11] = Trypanosoma cruzi growth suppression in host cells – NIH3T3 host cells, beta-gal luminescence, confirmation (AID 2044); type: functional, cell-based;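 note: intracellular parasites grown in NIH/3T3 mouse fibroblasts as host cells; luminescent beta-galactosidase reporter signal from transgenic T. cruzi replicating inside host cells; inhibitors lower the luminescence signal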
[12] = NIH3T3 cell viability loss – ATP luminescence, mouse fibroblasts, counter-screen, dose response (AID 2010); type: functional, cell-based;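 note: cells exposed to compound for about 90 hours before reading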
[13] = Luminescence Cell-Based Dose Retest to Confirm Inhibitors of Cancer Stem Cells. [Related pubchem assays (depositor defined):AID2717, AID2721]; type: functional; settings: Homo sapiens

T1 sequence (P11940 whole entry, the tested form may be a part): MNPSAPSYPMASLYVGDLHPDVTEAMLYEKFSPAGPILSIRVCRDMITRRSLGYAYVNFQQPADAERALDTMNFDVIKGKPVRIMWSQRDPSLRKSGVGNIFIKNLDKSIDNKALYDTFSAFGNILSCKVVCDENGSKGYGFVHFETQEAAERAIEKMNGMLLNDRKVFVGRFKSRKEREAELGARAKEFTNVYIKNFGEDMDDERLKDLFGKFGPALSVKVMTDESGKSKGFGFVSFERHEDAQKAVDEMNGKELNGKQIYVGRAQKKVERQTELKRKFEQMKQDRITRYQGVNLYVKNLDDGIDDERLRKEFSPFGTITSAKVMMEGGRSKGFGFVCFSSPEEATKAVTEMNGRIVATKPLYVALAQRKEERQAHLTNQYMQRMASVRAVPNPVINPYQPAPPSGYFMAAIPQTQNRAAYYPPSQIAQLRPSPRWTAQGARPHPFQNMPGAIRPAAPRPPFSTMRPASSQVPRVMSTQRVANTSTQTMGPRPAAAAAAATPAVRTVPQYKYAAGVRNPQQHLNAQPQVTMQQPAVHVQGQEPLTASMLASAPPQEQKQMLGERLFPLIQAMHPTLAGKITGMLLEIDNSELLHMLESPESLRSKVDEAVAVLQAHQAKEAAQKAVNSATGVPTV
Chain of Nonstructural protein 1 (Q194T2 whole entry): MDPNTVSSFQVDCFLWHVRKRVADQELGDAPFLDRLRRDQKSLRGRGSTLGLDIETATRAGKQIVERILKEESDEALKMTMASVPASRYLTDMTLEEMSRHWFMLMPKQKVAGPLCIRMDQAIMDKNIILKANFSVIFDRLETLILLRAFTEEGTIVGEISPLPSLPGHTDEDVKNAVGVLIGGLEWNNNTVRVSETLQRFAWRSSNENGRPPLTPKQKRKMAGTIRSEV
Chain of FAD-linked sulfhydryl oxidase ALR (P55789 whole entry, the tested form may be a part): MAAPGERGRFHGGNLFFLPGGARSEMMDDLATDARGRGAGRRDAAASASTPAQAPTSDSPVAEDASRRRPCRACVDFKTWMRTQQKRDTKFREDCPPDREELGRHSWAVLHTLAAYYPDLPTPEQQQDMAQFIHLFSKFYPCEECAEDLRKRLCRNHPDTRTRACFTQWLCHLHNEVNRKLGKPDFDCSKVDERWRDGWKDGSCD
Chain of Cytochrome P450 2D6 (P10635 whole entry): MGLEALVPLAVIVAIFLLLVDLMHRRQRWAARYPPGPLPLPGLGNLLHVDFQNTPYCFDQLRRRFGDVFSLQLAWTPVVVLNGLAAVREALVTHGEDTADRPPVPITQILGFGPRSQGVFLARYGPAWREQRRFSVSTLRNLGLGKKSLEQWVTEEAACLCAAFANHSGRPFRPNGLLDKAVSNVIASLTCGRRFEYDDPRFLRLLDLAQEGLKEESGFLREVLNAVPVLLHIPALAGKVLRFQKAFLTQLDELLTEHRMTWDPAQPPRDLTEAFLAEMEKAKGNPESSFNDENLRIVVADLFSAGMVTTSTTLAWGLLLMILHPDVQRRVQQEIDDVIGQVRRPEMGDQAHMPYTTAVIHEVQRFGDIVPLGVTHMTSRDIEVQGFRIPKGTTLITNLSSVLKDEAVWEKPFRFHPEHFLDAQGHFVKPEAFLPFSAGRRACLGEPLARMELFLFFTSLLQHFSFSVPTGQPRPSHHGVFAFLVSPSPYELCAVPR
Chain of Cytochrome P450 2C9 (P11712 whole entry): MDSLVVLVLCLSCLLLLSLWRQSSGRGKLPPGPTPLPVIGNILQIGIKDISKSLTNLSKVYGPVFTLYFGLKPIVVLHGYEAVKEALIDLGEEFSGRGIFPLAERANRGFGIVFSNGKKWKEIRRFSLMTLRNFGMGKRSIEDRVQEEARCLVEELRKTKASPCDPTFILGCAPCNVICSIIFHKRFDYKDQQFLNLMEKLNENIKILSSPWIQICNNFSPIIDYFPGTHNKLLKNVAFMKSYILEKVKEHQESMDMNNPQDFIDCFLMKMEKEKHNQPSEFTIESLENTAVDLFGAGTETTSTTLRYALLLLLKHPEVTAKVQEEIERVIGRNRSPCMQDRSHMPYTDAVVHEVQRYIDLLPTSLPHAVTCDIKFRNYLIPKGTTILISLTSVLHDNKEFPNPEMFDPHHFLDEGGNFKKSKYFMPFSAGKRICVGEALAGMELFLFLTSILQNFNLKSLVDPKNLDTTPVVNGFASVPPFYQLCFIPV
Chain of Cytochrome P450 3A4 (P08684 whole entry): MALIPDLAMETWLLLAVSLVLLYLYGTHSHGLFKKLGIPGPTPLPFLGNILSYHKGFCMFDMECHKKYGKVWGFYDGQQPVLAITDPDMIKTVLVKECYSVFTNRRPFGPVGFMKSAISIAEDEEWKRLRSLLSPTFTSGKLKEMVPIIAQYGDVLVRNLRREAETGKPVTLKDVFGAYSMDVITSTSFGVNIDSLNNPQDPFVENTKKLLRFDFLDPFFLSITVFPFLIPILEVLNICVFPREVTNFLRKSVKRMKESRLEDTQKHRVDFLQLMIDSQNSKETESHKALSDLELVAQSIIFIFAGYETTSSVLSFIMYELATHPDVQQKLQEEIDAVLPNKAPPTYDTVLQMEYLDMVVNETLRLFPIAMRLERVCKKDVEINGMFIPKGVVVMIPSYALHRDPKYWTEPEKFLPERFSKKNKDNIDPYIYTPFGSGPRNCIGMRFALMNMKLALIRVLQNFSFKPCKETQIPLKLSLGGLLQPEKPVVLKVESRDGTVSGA

## NNc1nc2ccc(F)cc2s1
[1]
  AC50: 4.94 µM (active)

## COC(=O)c1c(NC(=O)C2C3CCC(C3)C2C(=O)O)sc2c1CCCCC2 (stereo not drawn)
[2]
  IC50: > 66 µM (inactive)
[3]
  IC50: > 66 µM (inactive)

## COc1ccc(N2CCN(C(=O)CCNS(=O)(=O)c3ccccc3)CC2)cc1
[1]
  AC50: 8.08 µM (active)

## O=C(CSc1nnc(CNC(=O)c2c(F)cccc2F)o1)NCc1ccco1
[4]
  IC50: 14 µM (active)

## CCCCC1=CC2=CC(=O)C(C)(OC(=O)c3ccc(Cl)nc3)C(=O)C2=CO1 (stereo not drawn)
[5]
  EC50: 21.7 µM (active)
[6]
  EC50: 21.6 µM (active)

## CN(CC(=O)Nc1cccc2ccccc12)C(=O)c1ccc(NC(=O)CC#N)cc1
[1]
  AC50: 6.29 µM (active)

## CC(C)c1nnc(NC(=O)CS(=O)(=O)Cc2ccccc2)s1
[2]
  IC50: > 66 µM (inactive)
[3]
  IC50: > 66 µM (inactive)

## O=C(CN1CCN(c2ccc(Cl)cc2)CC1)N1CCCC1
[1]
  AC50: 0.657 µM (active)

## Nc1nn(-c2ccccc2)c(N)c1N=Nc1ccccc1F
Nonstructural protein 1
  IC50: > 100 µM (active)

## COc1ccc(OC)c(C(=O)c2coc3ccc(O)c(CN4CCOCC4)c23)c1
[5]
  EC50: > 300 µM (not active)
[6]
  EC50: > 300 µM (not active)

## Cc1nc(C(F)(F)F)c(C(=O)NN=C(N)c2ccccn2)s1
[7]
  EC50: 11.5 µM (active)
[8]
  EC50: > 120 µM (not active)
Nonstructural protein 1
  IC50: 8.03 µM (active)
[9]
  EC50: > 120 µM (not active)
INS1
  AC50: 5.45 µM (active)

## CCOC(=O)c1nc(Nc2ccc(N3CCC(C)CC3)cc2)c2ccccc2n1
Nonstructural protein 1
  IC50: 26.9 µM (active)

## Cn1c(=O)c(-c2cc(O)[nH]n2)c(O)c2ccccc21
[5]
  EC50: > 300 µM (not active)
[6]
  EC50: 23.3 µM (active)

## O=C(COc1ccc(-n2cnnn2)cc1)Nc1ccccc1Cl
[4]
  IC50: 11.4 µM (active)

## Cc1ccc2[nH]c(C(=O)O)c(-c3ccccc3)c2c1
[1]
  AC50: 4.49 µM (active)

## CC1CCN(C(=O)COC(=O)CCc2c[nH]c3ccccc23)CC1
cells
  IC50: 2.53 µM (active)

## Cc1cc(NC(=O)CSC2=NCCS2)no1
[2]
  IC50: > 66 µM (inactive)
[3]
  IC50: > 66 µM (inactive)

## CN1C(=O)C(=Cc2ccc(Sc3ccccc3)o2)C(=O)N(C)C1=S
[5]
  EC50: > 300 µM (not active)
[6]
  EC50: > 300 µM (not active)

## O=C(CN1C(=O)N/C(=C\c2ccccc2OCc2ccc(C(=O)O)cc2)C1=O)Nc1ccc(F)cc1
[4]
  IC50: 9.09 µM (active)

## Cc1onc(-c2ccccc2Cl)c1C(=O)NCCn1c(C)cc2ccccc21
Nonstructural protein 1
  IC50: > 100 µM (active)

## O=C(Nc1ccc(Nc2ccccc2)cc1)C1CC1
[1]
  AC50: 0.875 µM (active)
[10]
  IC50: 50.8 µM (active)

## O=C(OCc1ccccn1)c1ccc(COc2ccccc2Cl)o1
Cytochrome P450 2D6
  AC50: 17.8 µM (inconclusive)
Cytochrome P450 2C9
  AC50: 39.8 µM (inconclusive)
cells
  IC50: 35.1 µM (active)
Cytochrome P450 3A4
  AC50: 31.6 µM (inconclusive)

## O=C(COC(=O)c1cc(-c2cccs2)nc2ccccc12)NCc1ccco1
[4]
  IC50: 9.73 µM (active)

## Cn1c(=O)[nH]c(=O)c2c1nc(Br)n2CCCSc1nc2ccccc2o1
[1]
  AC50: < 0.005 µM (active)
[11]
  EC50: 1.32 µM (active)
[12]
  EC50: 15.8 µM (active)

## N#Cc1nc(-c2cccs2)oc1NCCc1ccccc1
cells
  IC50: 7.45 µM (active)

## Cc1ccc(C)n1-c1ccc2c(c1)COC2=O
[5]
  EC50: > 300 µM (not active)
[6]
  EC50: > 300 µM (not active)

## COc1ccc(NS(=O)(=O)c2ccc(NC(=S)NC(=O)c3cccc(F)c3)cc2)nn1
[2]
  IC50: > 66 µM (inactive)
[3]
  IC50: > 66 µM (inactive)

## CCCCN=C(S)Nc1ccc(OC)nc1
[2]
  IC50: 43.7 µM (inactive)
[3]
  IC50: > 66 µM (inactive)

## O=C1NC(c2ccccn2)Nc2sc3c(c21)CCC3 (stereo not drawn)
Nonstructural protein 1
  IC50: 54.2 µM (active)

## CCCC(=O)NC(=S)Nc1cccc(Cl)c1N1CCCC1
[2]
  IC50: > 66 µM (inactive)
[3]
  IC50: > 66 µM (inactive)
[13]
  AC50: 4.17 µM (active)

## COc1ccccc1C(=O)C1CCCN(C(=O)c2cccnc2SC)C1 (stereo not drawn)
[5]
  EC50: > 300 µM (not active)
[6]
  EC50: > 300 µM (not active)

## CCCCCCN1C(=O)NC(=O)/C(=C\NCCCn2ccnc2)C1=O
[5]
  EC50: > 300 µM (not active)
[6]
  EC50: > 300 µM (inconclusive)

## c1ccc(-c2cn(C[C@H]3CC[C@H](Cn4cc(-c5ccccn5)nn4)O3)nn2)nc1
Nonstructural protein 1
  IC50: 3.19 µM (active)

## COc1ccc(C(=O)NCC(c2cccnc2)N2CCN(c3ccc(F)cc3)CC2)cc1OC (stereo not drawn)
[1]
  AC50: < 0.005 µM (active)

## CCc1c(O)n(-c2ccccc2C)c(SCC(=O)Nc2ccccc2OC)nc1=O
[2]
  IC50: > 66 µM (inactive)
[3]
  IC50: > 66 µM (inactive)

## O=C(O)C1CCCN1c1nc(Cl)ccc1[N+](=O)[O-] (stereo not drawn)
[2]
  IC50: > 66 µM (inactive)
[3]
  IC50: > 66 µM (inactive)

## CO/N=C/CC(=O)c1ccc(OC)cc1
cells
  IC50: 22.9 µM (active)

## CCSc1ncc(/C=N/Nc2ccc(Cl)cc2)n1C
[13]
  AC50: 3.3 µM (active)
cells
  IC50: > 50 µM (active)

## Cc1cc(C(=O)N/N=C/c2cccc([N+](=O)[O-])c2O)[nH]n1
Nonstructural protein 1
  IC50: 7.33 µM (active)

## COc1cccc(/C=N/NC(=O)c2ccc(O)nn2)c1O
[5]
  EC50: 31.7 µM (active)

## CC(C)[N+](C)(CCC(C(N)=O)(c1ccccc1)c1ccccc1)C(C)C [ISOPROPAMIDE IODIDE]
[4]
  IC50: 3.27 µM (active)
